Assays:
SK-MEL-28 = assay: NCI one-dose screening, melanoma SK-MEL-28; assay type: cell-based, human; conditions: 10 μM
MCF7 = assay: NCI one-dose screening, breast cancer MCF7; assay type: cell-based, human; conditions: 10 μM
BT-549 = assay: NCI one-dose screening, breast cancer BT-549; assay type: cell-based, human; conditions: 10 μM
SK-OV-3 = assay: NCI one-dose screening, ovarian cancer SK-OV-3; assay type: cell-based, human; conditions: 10 μM
IGROV1 = assay: NCI one-dose screening, ovarian cancer IGROV1; assay type: cell-based, human; conditions: 10 μM
SK-MEL-2 = assay: NCI one-dose screening, melanoma SK-MEL-2; assay type: cell-based, human; conditions: 10 μM
SNB-19 = assay: NCI one-dose screening, CNS cancer SNB-19; assay type: cell-based, human; conditions: 10 μM
human tumor cell lines = assay: NCI one-dose screening, Mean / Delta / Range of growth percent over all tested cell lines; assay type: cell-based; conditions: 10 μM
NCI-H460 = assay: NCI one-dose screening, non-small cell lung cancer NCI-H460; assay type: cell-based, human; conditions: 10 μM
[1] = NCI one-dose screening, renal cancer A489; assay type: cell-based, human; conditions: 10 μM
SNB-75 = assay: NCI one-dose screening, CNS cancer SNB-75; assay type: cell-based, human; conditions: 10 μM
MDA-MB-231/ATCC = assay: NCI one-dose screening, breast cancer MDA-MB-231/ATCC; assay type: cell-based, human; conditions: 10 μM
A549/ATCC = assay: NCI one-dose screening, non-small cell lung cancer A549/ATCC; assay type: cell-based, human; conditions: 10 μM
UO-31 = assay: NCI one-dose screening, renal cancer UO-31; assay type: cell-based, human; conditions: 10 μM
RXF, 393 = assay: NCI one-dose screening, renal cancer RXF, 393; assay type: cell-based, human; conditions: 10 μM
OVCAR-8 = assay: NCI one-dose screening, ovarian cancer OVCAR-8; assay type: cell-based, human; conditions: 10 μM
EKVX = assay: NCI one-dose screening, non-small cell lung cancer EKVX; assay type: cell-based, human; conditions: 10 μM
KM12 = assay: NCI one-dose screening, colon cancer KM12; assay type: cell-based, human; conditions: 10 μM
UACC-257 = assay: NCI one-dose screening, melanoma UACC-257; assay type: cell-based, human; conditions: 10 μM
SK-MEL-5 = assay: NCI one-dose screening, melanoma SK-MEL-5; assay type: cell-based, human; conditions: 10 μM
DU145 = assay: NCI one-dose screening, prostate cancer DU145; assay type: cell-based, human; conditions: 10 μM
786-O = assay: NCI one-dose screening, renal cancer 786-O; assay type: cell-based, human; conditions: 10 μM
UACC-62 = assay: NCI one-dose screening, melanoma UACC-62; assay type: cell-based, human; conditions: 10 μM
MDA-MB-468 = assay: NCI one-dose screening, breast cancer MDA-MB-468; assay type: cell-based, human; conditions: 10 μM
LOX IMVI = assay: NCI one-dose screening, melanoma LOX IMVI; assay type: cell-based, human; conditions: 10 μM
[2] = tested on: PC-3 prostate cancer cell line; assay: SRB assay cell viability, PC-3 prostate cancer cell line; assay type: cell-based, human; conditions: PC-3 prostate cancer cell line, Table II prints no unit, μM printed, read-out: SRB assay: 50% inhibition of cancer cell proliferation of sample concentration (IC50) of PC-3 prostate cancer cell line
OVCAR-3 = assay: NCI one-dose screening, ovarian cancer OVCAR-3; assay type: cell-based, human; conditions: 10 μM
K562cell line = assay: NCI one-dose screening, leukemia K562; assay type: cell-based, human; conditions: 10 μM
PRMI-8226 cell line = assay: NCI one-dose screening, leukemia PRMI-8226; assay type: cell-based, human; conditions: 10 μM
HS 578-T = assay: NCI one-dose screening, breast cancer HS 578-T; assay type: cell-based, human; conditions: 10 μM; Breast cancer
MDA, -MB-435 = assay: NCI one-dose screening, breast cancer MDA, -MB-435; assay type: cell-based, human; conditions: 10 μM; listed under Melanoma
HCT-15 = assay: NCI one-dose screening, colon cancer HCT-15; assay type: cell-based, human; conditions: 10 μM
HCC-2998 = assay: NCI one-dose screening, colon cancer HCC-2998; assay type: cell-based, human; conditions: 10 μM
M14 = assay: NCI one-dose screening, melanoma M14; assay type: cell-based, human; conditions: 10 μM
HOP-62 = assay: NCI one-dose screening, non-small cell lung cancer HOP-62; assay type: cell-based, human; conditions: 10 μM
NCl/ADR-RES = assay: NCI one-dose screening, breast cancer NCl/ADR-RES; assay type: cell-based, human; conditions: 10 μM; listed under Ovarian cancer
MALME-3M = assay: NCI one-dose screening, melanoma MALME-3M; assay type: cell-based, human; conditions: 10 μM
SF-295 = assay: NCI one-dose screening, CNS cancer SF-295; assay type: cell-based, human; conditions: 10 μM
SR = assay: NCI one-dose screening, leukemia SR; assay type: cell-based, human; conditions: 10 μM
TK-10 = assay: NCI one-dose screening, renal cancer TK-10; assay type: cell-based, human; conditions: 10 μM
SF-268 = assay: NCI one-dose screening, CNS cancer SF-268; assay type: cell-based, human; conditions: 10 μM
HL-60, TB = assay: NCI one-dose screening, leukemia HL-60, TB; assay type: cell-based, human; conditions: 10 μM
HCT-116 = assay: NCI one-dose screening, colon cancer HCT-116; assay type: cell-based, human; conditions: 10 μM
ACHN = assay: NCI one-dose screening, renal cancer ACHN; assay type: cell-based, human; conditions: 10 μM
HOP-92 = assay: NCI one-dose screening, non-small cell lung cancer HOP-92; assay type: cell-based, human; conditions: 10 μM
SN12C = assay: NCI one-dose screening, renal cancer SN12C; assay type: cell-based, human; conditions: 10 μM
NCI-H522 = assay: NCI one-dose screening, non-small cell lung cancer NCI-H522; assay type: cell-based, human; conditions: 10 μM
MOLT-4 = assay: NCI one-dose screening, leukemia MOLT-4; assay type: cell-based, human; conditions: 10 μM
NCI-H226 = assay: NCI one-dose screening, non-small cell lung cancer NCI-H226; assay type: cell-based, human; conditions: 10 μM
U251 = assay: NCI one-dose screening, CNS cancer U251; assay type: cell-based, human; conditions: 10 μM
CAKI-1 = assay: NCI one-dose screening, renal cancer CAKI-1; assay type: cell-based, human; conditions: 10 μM
PC-3 = assay: NCI one-dose screening, prostate cancer PC-3; assay type: cell-based, human; conditions: 10 μM
SF-539 = assay: NCI one-dose screening, CNS cancer SF-539; assay type: cell-based, human; conditions: 10 μM
OVCAR-5 = assay: NCI one-dose screening, ovarian cancer OVCAR-5; assay type: cell-based, human; conditions: 10 μM
NCI-H23 = assay: NCI one-dose screening, non-small cell lung cancer NCI-H23; assay type: cell-based, human; conditions: 10 μM
HT29 = assay: NCI one-dose screening, colon cancer HT29; assay type: cell-based, human; conditions: 10 μM
COLO 205 = assay: NCI one-dose screening, colon cancer COLO 205; assay type: cell-based, human; conditions: 10 μM
T-47D = assay: NCI one-dose screening, breast cancer T-47D; assay type: cell-based, human; conditions: 10 μM

4-(o-phenylmethyl thio)anthra[2,1-c] [1,2,5]thiadiazol-6,11-dione [C48]
Growth Percent SK-MEL-28 (SK-MEL-28): 105.73% | Growth Percent MCF7 (MCF7): 66.12% | Growth Percent BT-549 (BT-549): 95.35% | Growth Percent SK-OV-3 (SK-OV-3): 93.79% | Growth Percent IGROV1 (IGROV1): 80.06% | Growth Percent SK-MEL-2 (SK-MEL-2): 73.29% | Growth Percent SNB-19 (SNB-19): 103.54% | Growth Percent Delta (human tumor cell lines; delta over all cell lines): 75.31% | Growth Percent Mean (human tumor cell lines; mean over all cell lines): 80.61% | Growth Percent Range (human tumor cell lines; range over all cell lines): 120.98% | Growth Percent NCI-H460 (NCI-H460): 88.86% | Growth Percent A498 [1]: 85.54% | Growth Percent SNB-75 (SNB-75): 76.30% | Growth Percent MDA-MB-231/ATCC (MDA-MB-231/ATCC): 60.72% | Growth Percent A549/ATCC (A549/ATCC): 104.68% | Growth Percent UO-31 (UO-31): 62.14% | Growth Percent RXF 393 (RXF, 393): 95.88% | Growth Percent OVCAR-8 (OVCAR-8): 76.29% | Growth Percent EKVX (EKVX): 104.56% | Growth Percent KM12 (KM12): 103.11% | Growth Percent UACC-257 (UACC-257): 87.32% | Growth Percent SK-MEL-5 (SK-MEL-5): 87.54% | Growth Percent DU145 (DU145): 101.53% | Growth Percent 786-0 (786-O): 100.36% | Growth Percent UACC-62 (UACC-62): 90.69% | Growth Percent MDA-MB-468 (MDA-MB-468): 53.68% | Growth Percent LOX IMVI (LOX IMVI): 30.01% | IC50 [2]: > 15 µM | Growth Percent OVCAR-3 (OVCAR-3): 5.30% | Growth Percent K562 (K562cell line): 32.30% | Growth Percent RPMI-8226 (PRMI-8226 cell line): 48.56% | Growth Percent HS 578T (HS 578-T): 83.69% | Growth Percent MDA-MB-435 (MDA, -MB-435): 80.61% | Growth Percent HCT-15 (HCT-15): 38.57% | Growth Percent HCC-2998 (HCC-2998): 124.00% | Growth Percent M14 (M14): 94.25% | Growth Percent HOP-62 (HOP-62): 59.51% | Growth Percent NCI/ADR-RES (NCl/ADR-RES): 59.53% | Growth Percent MALME-3M (MALME-3M): 96.77% | Growth Percent SF-295 (SF-295): 104.92% | Growth Percent SR (SR): 23.00% | Growth Percent TK-10 (TK-10): 122.97% | Growth Percent SF-268 (SF-268): 74.73% | Growth Percent HL-60(TB) (HL-60, TB): −79.53% | Growth Percent HCT-116 (HCT-116): 92.15% | Growth Percent ACHN (ACHN): 89.76% | Growth Percent HOP-92 (HOP-92): 89.91% | Growth Percent SN12C (SN12C): 85.97% | Growth Percent NCI-H522 (NCI-H522): 74.81% | Growth Percent MOLT-4 (MOLT-4): 67.31% | Growth Percent NCI-H226 (NCI-H226): 95.71% | Growth Percent U251 (U251): 62.36% | Growth Percent CAKI-1 (CAKI-1): 81.47% | Growth Percent PC-3 (PC-3): 73.26% | Growth Percent SF-539 (SF-539): 78.04% | Growth Percent OVCAR-5 (OVCAR-5): 126.28% | Growth Percent NCI-H23 (NCI-H23): 53.21% | Growth Percent HT29 (HT29): 104.31% | Growth Percent COLO 205 (COLO 205): 99.23% | Growth Percent T-47D (T-47D): 51.89%
